# Activity calls are given as the source filed them. No cut-off for these calls is given here.
# Columns and labels:
# Mus musculus [1] = assay: Effect on calcium level in serum of OVX-induced bone loss ICR mouse model at 10 ug/kg, po via gavage for 12 weeks by ELISA (reference value: 9.3 +/- 0.3 mg/dl); assay type: functional
# Mus musculus [2] = assay: Effect on […] level in serum of OVX-induced bone loss ICR mouse model at 10 ug/kg, po via gavage for 12 weeks by ELISA (reference value: 8.2 +/- 0.4 mg/dl); assay type: functional
# Mus musculus [3] = assay: Effect on alkaline phosphatase activity in serum of OVX-induced bone loss ICR mouse model at 10 ug/kg, po via gavage for 12 weeks using p-NPP as substrate (reference value: 84.9 +/- 4.2 U/L); assay type: functional
# Mus musculus [4] = assay: Effect on TRAP activity in serum of OVX-induced bone loss ICR mouse model at 10 ug/kg, po via gavage for 12 weeks (reference value: 19.8 +/- 1.0 U/L); assay type: functional
# Mus musculus [5] = assay: Effect on osteocalcin level in serum of OVX-induced bone loss ICR mouse model at 10 ug/kg, po via gavage for 12 weeks by ELISA (reference value: 176.9 +/- 4.7 ng/ml); assay type: functional
# Mus musculus [6] = assay: Effect on C-terminal telopeptide level in serum of OVX-induced bone loss ICR mouse model at 10 ug/kg, po via gavage for 12 weeks by ELISA (reference value: 95.7 +/- 3.8 ng/ml); assay type: functional
# Mus musculus [7] = assay: Anti-osteoporotic activity in OVX-induced bone loss ICR mouse model assessed as decrease in trabecular bone destruction in femur at 10 ug/kg, po administered for 12 weeks via gavage by microcomputed tomography; assay type: functional, organism-based
smiles,measurement,setting,value
C[C@]12CC[C@@H]3c4ccc(O)cc4CC[C@H]3[C@@H]1CC[C@@H]2O [ESTRADIOL],Activity,Mus musculus [1],9.1 mg/dL
same,Activity,Mus musculus [2],7.9 mg/dL
same,Activity,Mus musculus [3],59.9 U/L
same,Activity,Mus musculus [4],10.8 U/L
same,Activity,Mus musculus [5],141.9 ng/mL
same,Activity,Mus musculus [6],76.6 ng/mL
same,Activity,Mus musculus [7],Active
